# Laboratory results: patent US20210161840A1, “COMPOSITIONS AND METHODS FOR TREATMENT OF IRON OVERLOAD” (priority 2018, published 2021)
# What was measured:
# [1] = Keberle, 1964; cited from earlier work
# [2] = Keberle, 1964; cited from earlier work; remark: listed apart in the source
# [3] = Keberle, 1964; cited from earlier work; remark: listed apart in the source
# [4] = Keberle, 1964; cited from earlier work; remark: listed apart in the source
# [5] = system: doxorubicin-induced cardiomyopathy; assay: Doxorubicin-induced cardiomyopathy in mice; type: in vivo, C57BL/6 mice
# Method: The purpose of this study was to assess the protective effect of dexrazoxan or the zinc-dexrazoxan complex, administered with or without Ga-DFO, against doxorubicin-induced cardiomyopathy.
# C57BL/6 mice are injected once with doxorubicin, 20 mg/kg, i.p., and then divided into the following 5 groups: Group 1: untreated; Group 2: treated with dexrazoxan single dose of 400 mg/kg i.v.; Group 3: treated with the zinc complex of dexrazoxan single dose of 100 mg/kg i.v.; Group 4: treated with the Ga-DFO complex 6 mg/kg, and Group 5: treated with the zinc complex of dexrazoxan single dose of 50 mg/kg i.v. together with Ga-DFO 4 mg/kg. The animals are monitored for 21 days, measuring their survival (Kaplan-Meier curves). On Day 21 the animals are sacrificed, and their hearts are assessed histologically for cardiac remodeling and hypertrophy (collagen % or area).
Compound,relative stability constant of DFO complex with Ga(III) [1],relative stability constant of DFO complex with Cu(II) [2],relative stability constant of DFO complex with Fe(III) [3],relative stability constant of DFO complex with Zn(II) [4],"survival ([5]; Day 15 after doxorubicin 20 mg/kg i.p., about 90% of untreated mice die)","collagen % of the area (cardiac histology) ([5]; Day 21 after doxorubicin 20 mg/kg i.p., untreated about 10-12%)"
"CC(=O)N(O)CCCCCNC(=O)CCC(=O)N(O)CCCCCNC(=O)CCC(=O)N(O)CCCCCN [DFO, N′-[5-(acetyl-hydroxy-amino)pentyl]-N-[5-[3-(5-aminopentyl-hydroxy-carbamoyl)propanoylamino]pentyl]-N-hydroxy-butane diamide]",10^28,10^14,10^31,10^11,,
C[C@@H](CN1CC(=O)NC(=O)C1)N1CC(=O)NC(=O)C1 [dexrazoxan],,,,,about 50%,about 9%
